According to patent US20140369987A1, “DERMASEPTIN B2 USED AS AN INHIBITOR OF THE GROWTH OF A TUMOR” (Centre National de la Recherche Scientifique (C.N. R.S), priority 2009, published 2014):
Ends that are not written are not given here.

What was measured:
[1] = test system: G1947 human prostatic hyperplasia cells
Protocol: (§1) The anti-proliferative activity of dermaseptin B2 was assessed in vitro on different types of cells: PC-3 adenocarcinoma cells and G1947 human prostatic hyperplasia cells, and on mouse embryo cells (CES). The different types of cells were seeded in 24-well plates at […] in 0.5 ml of culture medium (RPMI supplemented with 5% foetal calf serum for the PC-3 and G1947 cells, or DMEM supplemented with 10% foetal calf serum for the CES cells). After 24 hours, the cells were treated with different doses of dermaseptin B2. The treatment was then renewed at days 3 and 5 after seeding of the cells. On the 6th day, an estimated cell count was performed by staining with crystal violet. The cells were rinsed with PBS, fixed on plastic by dehydration with absolute ethanol, and then stained with a 0.2% solution of crystal violet in 2% ethanol for 15 min. After washing, the cells were solubilised with 1% SDS solution. The optical density (OD) of the crystal violet was measured using a spectrophotometer at 595 nm. A standard range was produced for conversion of OD-number of cells.

[2] = test system: mouse embryo cells (CES)
Protocol: as §1

[3] = test system: LB-EBV cells; test: Growth of non-adherent B-lymphoma line LB-EBV, crystal violet cell count; assay type: cell-based, human; conditions: 10 μM; count on 7th day
Protocol: (§2) Dermaseptin B2 was also tested on the growth of two non-adherent lines derived from human B-lymphoma: the Raji and LB-EBV lines. The cells were seeded at 10^4 cells per well in 0.5 ml of RPMI medium supplemented with 2.5% of decomplemented foetal calf serum. 24 hours after seeding, the cells were treated with different concentrations of dermaseptin B2. […] On the 7th day, the cell count was estimated by staining with crystal violet as described previously.

[4] = test system: Raji cells; test: Growth of non-adherent B-lymphoma line Raji, crystal violet cell count; assay type: cell-based, human; conditions: 10 μM; count on 7th day
Protocol: as §2

[5] = test system: PC-3 cells; test: Colony formation of PC-3 cells in soft agar; assay type: cell-based, human; conditions: 5 μM; 12 days
Protocol: To confirm the inhibition of the cell growth observed on plastic with the PC-3 cells, the inventors tested the effect of dermaseptin B2 on the ability of the PC-3 cells to multiply independently of anchoring by forming colonies in agar. For this assay, the cells were seeded at a density of 2.5×10^3 cells par cm^2 diluted in complete culture medium (RPMI supplemented with 5% foetal calf serum) containing 0.35% agar and varying concentrations of dermaseptin B2, in 12-well dishes containing 1 ml of solidified 0.6% agar. The same variable concentrations of dermaseptin B2 were also added to the complete culture medium deposited on top of the cultures on the day of seeding, and twice per week. After incubation for 12 days at 37° C. in an incubator saturated with water vapour and containing 7% CO2, the colonies having a diameter larger than […] were counted. Each measurement was performed in triplicate and each experiment was repeated three times.

[6] = test system: tumours induced by injection of PC-3; test: Growth of PC-3 xenograft tumours in nude mice; assay type: in vivo
Protocol: Batches of 10 nude mice (nude/nude, Laboratoire IFFA CREDO) were injected with 2×10^6 PC-3 cells. One week after injection of the cells, the animals having a palpable tumour were randomly distributed per cage to be treated by injection into the tumour with 100 μl per day of PBS solution (control batch) or with a solution of dermaseptin B2 diluted in PBS. Dermaseptin B2 was injected at a concentration of 5 mg/kg the first week of treatment, then this dose was reduced to 0.5 mg/kg for 12 days. […] As control, a batch of mice was also treated with Taxol® (paclitaxel, Bristol-Myers Squibb) twice per week via intra-peritoneal injection at 10 mg/kg. The size of the tumours was measured using a calliper twice a week up until sacrifice of the animals 29 days after the beginning of treatment. After sacrifice, the tumours were removed and weighed.

[7] = test system: adult bovine aortic endothelial cells (ABAE); test: Proliferation of ABAE endothelial cells on plastic; assay type: cell-based; conditions: with 5 ng/ml FGF-2; count on 7th day
Protocol: The angiostatic activity of dermaseptin B2 was assessed for its capacity to inhibit firstly the proliferation of adult bovine aortic endothelial cells (ABAE) on plastic and secondly the formation of pseudo capillaries by these same cells in collagen gel. For the proliferation test the ABAE cells were seeded in 24-well plates at a density of 10^4 cells/well in DMEM medium supplemented with 10% foetal calf serum and 5 ng/ml of FGF-2. […] On the 7th day the cell count was estimated by staining with crystal violet.

[8] = test system: ABAE cells; test: Formation of pseudo capillaries by ABAE cells on collagen 1 gel (Montessano test); assay type: cell-based, bovine; conditions: 5 μM
Protocol: The effect of dermaseptin B2 on the formation of pseudo capillaries was assessed through use of the Montessano test. This test allows evaluation of the differentiation of ABAE cells to pseudo capillaries when seeded in a monolayer on collagen 1 gel. For this assay, ABAE cells were seeded in 24-well plates on a monolayer of collagen 1 to the proportion of 10^5 cells/well in DMEM medium supplemented with 10% foetal calf serum. 24 hours after seeding, 20 ng/ml of FGF-2 were added to the cells in the absence or presence of varying concentrations of dermaseptin B2. This treatment was renewed for two days and the formation of a network of pseudo capillaries was assessed 24 hours later by observation under phase contrast microscope measuring the number of capillaries formed per field of observation (FIGS. 5C and D).

[9] = test system: PC-3 cells; test: Annexin V FITC / propidium iodide double labelling, flow cytometry; assay type: cell-based, human; conditions: 2.5 μM
Source text: During the proliferation assays of PC-3 or ABAE cells, in the presence of dermaseptin B2, the rapidly observed inhibitor effect and the non-refringence of the treated cells leads to assuming that dermaseptin B2 could have a cytotoxic role or cell death inducing role rather than blocking the growth of sensitive cells. To determine whether dermaseptin B2 could induce apoptosis of sensitive cells, the inventors conducted double labelling experiments with Annexin V and propidium iodide on PC-3 cells in culture on plastic and treated or not treated with dermaseptin B2. These experiments were followed by flow cytometry analysis of the labelled cells.
For this purpose, the cells were seeded in 6-well plates in the absence or presence of 2.5 μM of dermaseptin B2 for 24 or 72 hours. The cells were then detached, washed with cold PBS and re-suspended in 100 μl of fixing buffer (MACs, Miltenyi Biotec) containing Annexin V FITC for 10 min in the dark. After washings in PBS, the cells were again labelled by incubation in a fixing buffer containing a final concentration of 1 μg/ml of propidium iodide (PI) for 5 min in the dark. After further washings the cells were analyzed by passing through a flow cytometer (FACScan, Becton Dickinson Labware) (FIGS. 10 and 11).

[10] = test system: Gram+ and Gram− bacteria, yeasts, protozoa and filamentous fungi; conditions: micromolar doses; cited from earlier work
[11] = test system: receptor of adenosin A1; conditions: cited from earlier work

| Molecule | cell detachment during treatment, G1947 cells [1] | cell detachment during treatment, embryo (CES) cells [2] | inhibition of growth of LB-EBV cells [3] | inhibition of growth of Raji cells [4] | growth of PC-3 cells on soft agar (colonies) [5] | mice with full disappearance of the tumour ([6]; batches of 10 mice, after sacrifice at day 29) | inhibition of growth of ABAE cells [7] | formation of pseudo capillaries induced by FGF-2 ([8]; 20 ng/ml FGF-2) | cytotoxic effect on the monolayer of ABAE cells ([8]; pseudo capillary assay) | increase of percentage of cells labelled solely with PI (necrosis) [9] | increase in cells labelled twofold with Annexin V and PI (apoptosis) ([9]; 24 h) | increase of percentage of cells only labelled with Annexin V (early apoptosis) ([9]; 24 h) | percentage of non-labelled cells ([9]; 24 h) | percentage of cells labelled twofold with Annexin V and PI, 72 h versus 24 h ([9]; 72 h) | killing of Gram+ and Gram− bacteria, yeasts, protozoa and filamentous fungi [10] | effect on binding of agonists with the receptor of adenosin A1 [11] | inhibition of tumour growth (tumour volume) compared with non-treated tumours ([6]; intra-peritoneal 10 mg/kg twice per week, 29 days of treatment) |
| --- | --- | --- | --- | --- | --- | --- | --- | --- | --- | --- | --- | --- | --- | --- | --- | --- | --- |
| GLWSKIKEVGKEAAKAAAKAAGKAALGAVSEAV [dermaseptin B2] | no cell detachment was observed | no cell detachment was observed | about 95 | about 95 | fully inhibits growth | 3 mice | dose-dependent and full inhibition | strongly inhibits | did not have any cytotoxic effect | 3 times | about 30% | 5 times | dropped suddenly in the same proportions | does not change | rapidly kills | increase the binding of agonists | – |
| CC(=O)O[C@H]1C(=O)[C@@]2(C)[C@H]([C@H](OC(=O)c3ccccc3)[C@]3(O)C[C@H](OC(=O)[C@H](O)[C@@H](NC(=O)c4ccccc4)c4ccccc4)C(C)=C1C3(C)C)[C@]1(OC(C)=O)CO[C@@H]1C[C@@H]2O [Taxol®, paclitaxel, reference compound] | – | – | – | – | – | – | – | – | – | – | – | – | – | – | – | – | 36% |
